Values of other authors as cited in PMC10766353, “Oral FXIIa inhibitor KV998086 suppresses FXIIa and single chain FXII mediated kallikrein kinin system activation” (Frontiers in Pharmacology, 2023).
Read-outs that look alike come from different tables or passages of the source.

B1: lanadelumab: monoclonal antibody PKa inhibitor (antibody, chains of the INN, looked up, V domains shown)
VH: EVQLLESGGGLVQPGGSLRLSCAASGFTFSHYIMMWVRQAPGKGLEWVSGIYSSGGITVYADSVKGRFTISRDNSKNTLYLQMNSLRAEDTAVYYCAYRRIGVPRRDEFDIWGQGTMVTVSS
VL: DIQMTQSPSTLSASVGDRVTITCRASQSISSWLAWYQQKPGKAPKLLIYKASTLESGVPSRFSGSGSGTEFTLTISSLQPDDFATYYCQQYNTYWTFGQGTKVEIK

Assays:
HAE attacks [1] = system: HAE attacks; parameters: method as in Craig et al., 2023; conditions: six-month study, ref Craig et al., 2023
HAE attacks [2] = system: HAE attacks; parameters: method as in Banerji et al., 2018; conditions: 26-week phase 3 study; ref Banerji et al., 2018

Row | Molecule | HAE attack reduction (HAE attacks [1]; monthly administration) [%] | patients attack free (HAE attacks [1]) [%] | HAE attack reduction (HAE attacks [2]) [%] | patients attack free (HAE attacks [2]) [%]
1 | garadacimab: a monoclonal antibody that inhibits FXIIa | 87 | 62 | – | –
2 | B1 | – | – | 87 | 44
